According to patent US20210084902A1, “FUNGICIDAL MIXTURE COMPRISING SUBSTITUTED 3-PHENYL-5-(TRIFLUOROMETHYL)-1,2,4-OXADIAZOLES” (BASF SE, priority 2017, published 2021):
Like-named read-outs stand apart in the source and are kept apart here.

How the values were obtained:
Type in all cases: cell-based
[1] = test system: Botrytis cinerea; assay: Fungicidal activity against Botrytis cinerea, micro titer plate (MTP) test; conditions: Botrytis cinerea, 168 h, read-out: Observed efficacy
[2] = test system: Septoria tritici; assay: Fungicidal activity against Septoria tritici, micro titer plate (MTP) test; conditions: Zymoseptoria tritici, 168 h, read-out: Observed efficacy
[3] = test system: Colletotrichum orbiculare; assay: Fungicidal activity against Colletotrichum orbiculare in the microtiterplate test; conditions: for inhibition of growth at 6.3e-05 ppm: 0.000063 ppm
[4] = test system: Pyricularia oryzae; assay: microbe, parasite or virus in culture; conditions: Pyricularia oryzae, 168 h, read-out: Observed efficacy
[5] = test system: Leptosphaeria nodorum; assay: Fungicidal activity against Leptosphaeria nodorum, microtiter plate (MTP) test
[6] = Table V.4, component B alone, 0.25 ppm
[7] = Colletotrichum orbiculare, 0.25 ppm, read-out: Observed efficacy
[8] = Colletotrichum orbiculare, read-out: Observed efficacy
[9] = Parastagonospora nodorum, 168 h, 0.063 ppm, read-out: Observed efficacy
[10] = Parastagonospora nodorum, 168 h, 0.25 ppm, read-out: Observed efficacy
[11] = Parastagonospora nodorum, 168 h, read-out: Observed efficacy
[12] = Table V.4, component B alone, 0.063 ppm
[13] = Parastagonospora nodorum, 168 h, 0.004 ppm, read-out: Observed efficacy
[14] = Colletotrichum orbiculare, 0.016 ppm, read-out: Observed efficacy
[15] = Colletotrichum orbiculare, 0.001 ppm, read-out: Observed efficacy

CC(Cc1ccc(C(C)(C)C)cc1)CN1C[C@@H](C)O[C@@H](C)C1 (stereo partly shown) [Fenpropimorph, fenpropimorph]
inhibition of growth at […] ([1]; component B alone, 0.25 ppm): 29%
inhibition of growth at […] [2, 6]: 0%
inhibition of growth at […] [3, 7]: 5%
inhibition of growth at 1 ppm [3, 8]: 19%
inhibition of growth at 1 ppm [4]: 8%

CC(O)(Cn1cncn1)c1ccc(Oc2ccc(Cl)cc2)cc1C(F)(F)F (stereo not shown) [Mefentrifluconazol, mefentrifluconazole]
Observed efficacy ([5]; 0.004 ppm): 53
Observed efficacy ([3]; 0.001 ppm): 1

CNC(=O)C(=N/OC)/C(C)=C\COc1ccn(-c2ccc(Cl)cc2Cl)n1 [A.1.34, (Z,2E)-5-[1-(2,4-dichlorophenyl)pyrazol-3-yl]-oxy-2-methoxyimino-N,3-dimethyl-pent-3-enamide]
inhibition of growth at […] [5, 9]: 45%
inhibition of growth at 16 ppm ([1]; component B alone): 2%
inhibition of growth at 63 ppm ([1]; component B alone): 18%
inhibition of growth at 6.3e-05 ppm [3, 8]: 37%

Cc1ccc(-c2c(Cl)nc(C#N)n2S(=O)(=O)N(C)C)cc1 [Cyazofamid, cyazofamid]
inhibition of growth at […] [5, 10]: 6%
inhibition of growth at 4 ppm ([2]; Table V.4, component B alone): 2%
inhibition of growth at 16 ppm ([2]; Table V.4, component B alone): 8%
inhibition of growth at 4 ppm [4]: 13%

N#Cc1c(Cl)c(Cl)c(Cl)c(C#N)c1Cl [Chlorothalonil, chlorothalonil]
inhibition of growth at 1 ppm [5, 11]: 72%
inhibition of growth at 1 ppm ([1]; component B alone): 22%
inhibition of growth at […] [2, 6]: 25%

CO/N=C(/C1=NOCCO1)c1ccccc1Oc1ncnc(Oc2ccccc2Cl)c1F [Fluoxastrobin, fluoxastrobin]
inhibition of growth at […] [5, 10]: 38%
inhibition of growth at […] [2, 12]: 3%
inhibition of growth at […] [2, 6]: 32%
inhibition of growth at […] ([3]; Colletotrichum orbiculare, 0.063 ppm, read-out: Observed efficacy): 51%

O=C1c2ccccc2C(=O)N1SC(Cl)(Cl)Cl [Folpet, folpet]
inhibition of growth at 1 ppm [5, 11]: 40%
inhibition of growth at 1 ppm ([1]; component B alone): 13%
inhibition of growth at 1 ppm ([2]; Table V.4, component B alone): 70%
inhibition of growth at 1 ppm [3, 8]: 20%
inhibition of growth at 1 ppm [4]: 14%

CC(Cc1ccc(C(C)(C)C)cc1)CN1CCCCC1 (stereo not shown) [Fenpropidin, fenpropidin]
inhibition of growth at 1 ppm [5, 11]: 38%
inhibition of growth at 4 ppm ([1]; component B alone): 28%
inhibition of growth at 1 ppm ([2]; Table V.4, component B alone): 1%
inhibition of growth at 1 ppm [3, 8]: 9%
inhibition of growth at 4 ppm [3, 8]: 47%

Cc1cc(C2CC2)nc(Nc2ccccc2)n1 [Cyprodinil, cyprodinil]
inhibition of growth at 0.004 ppm [5, 13]: 71%
inhibition of growth at 1 ppm ([1]; component B alone): 66%
inhibition of growth at 1 ppm [3, 8]: 35%
inhibition of growth at 4 ppm [3, 8]: 38%
inhibition of growth at 1 ppm [4]: 56%

CC1COC(Cn2cncn2)(c2ccc(Oc3ccc(Cl)cc3)cc2Cl)O1 (stereo not shown) [Difenoconazol, difenoconazole]
inhibition of growth at […] [5, 9]: 41%
inhibition of growth at […] ([2]; Table V.4, component B alone, 0.016 ppm): 4%
inhibition of growth at […] [3, 14]: 1%
inhibition of growth at […] [3, 7]: 14%

CCCCNC(=O)n1c(NC(=O)OC)nc2ccccc21 [Benomyl, benomyl]
inhibition of growth at 1 ppm [5, 11]: 15%
inhibition of growth at […] ([1]; component B alone, 0.016 ppm): 8%
inhibition of growth at 9 ppm ([3]; Colletotrichum orbiculare, 9 ppm, read-out: Observed efficacy): 38%

CNC(=S)c1ccc(-c2noc(C(F)(F)F)n2)cc1 [I.M, N-methyl-4-[5-(trifluoromethyl)-1,2,4-oxadiazol-3-yl]benzenecarbothioamide]
inhibition of growth at 0.004 ppm [5, 13]: 6%
inhibition of growth at […] ([5]; Parastagonospora nodorum, 168 h, 0.016 ppm, read-out: Observed efficacy): 5%
inhibition of growth at […] [5, 10]: 7%
inhibition of growth at 1 ppm [5, 11]: 18%
inhibition of growth at 4 ppm [5, 11]: 52%
inhibition of growth at […] ([1]; I.M alone, 0.063 ppm): 1%
inhibition of growth at […] ([1]; I.M alone, 0.25 ppm): 2%
inhibition of growth at 1 ppm ([1]; I.M alone): 0%
inhibition of growth at 4 ppm ([1]; I.M alone): 15%
inhibition of growth at […] ([2]; Table V.5, I.M alone, 0.063 ppm): 14%
inhibition of growth at […] ([2]; Table V.5, I.M alone, 0.25 ppm): 23%
inhibition of growth at 1 ppm ([2]; Table V.5, I.M alone): 35%
inhibition of growth at 4 ppm ([2]; Table V.5, I.M alone): 42%
inhibition of growth at 6.3e-05 ppm [3, 8]: 2%
inhibition of growth at […] ([3]; Colletotrichum orbiculare, 0.00025 ppm, read-out: Observed efficacy): 2%
inhibition of growth at 0.001 ppm [3, 15]: 1%
inhibition of growth at 0.004 ppm ([3]; Colletotrichum orbiculare, 0.004 ppm, read-out: Observed efficacy): 1%
inhibition of growth at […] [3, 14]: 7%
inhibition of growth at 1 ppm [4]: 9%
inhibition of growth at 4 ppm [4]: 32%

COC(=O)N(OC)c1ccccc1COc1ccn(-c2ccc(Cl)cc2)n1 [Pyraclostrobin, pyraclostrobin]
inhibition of growth at […] ([5]; Parastagonospora nodorum, 168 h, 0.00025 ppm, read-out: Observed efficacy): 22%
inhibition of growth at 0.004 ppm [5, 13]: 59%
inhibition of growth at 0.004 ppm ([1]; component B alone, 0.004 ppm): 0%
inhibition of growth at […] ([1]; component B alone, 0.016 ppm): 14%
inhibition of growth at 6.3e-05 ppm ([2]; Table V.4, component B alone, 0.000063 ppm): 21%
inhibition of growth at 0.001 ppm [3, 15]: 32%
inhibition of growth at […] [3, 14]: 60%
inhibition of growth at 0.001 ppm [4]: 46%

O=C(Nc1ccccc1F)c1ccc(-c2noc(C(F)(F)F)n2)cc1 [I.E, N-(2-fluorophenyl)-4-[5-(trifluoromethyl)-1,2,4-oxadiazol-3-yl]benzamide]
inhibition of growth at 16 ppm ([5]; Parastagonospora nodorum, 168 h, 16 ppm, read-out: Observed efficacy): 18%
inhibition of growth at 63 ppm ([5]; Parastagonospora nodorum, 168 h, 63 ppm, read-out: Observed efficacy): 22%
inhibition of growth at […] ([1]; I.E alone, 0.063 ppm): 2%
inhibition of growth at 1 ppm ([1]; I.E alone): 2%
inhibition of growth at 4 ppm ([1]; I.E alone): 2%
inhibition of growth at 16 ppm ([1]; I.E alone): 3%
inhibition of growth at 63 ppm ([1]; I.E alone): 16%
inhibition of growth at […] ([2]; Table V.6, I.E alone, 0.25 ppm): 13%
inhibition of growth at 4 ppm ([2]; Table V.6, I.E alone): 7%
inhibition of growth at 16 ppm ([2]; Table V.6, I.E alone): 13%
inhibition of growth at 63 ppm ([2]; Table V.6, I.E alone, 63 ppm): 14%
inhibition of growth at […] [3, 7]: 4%
inhibition of growth at 1 ppm [3, 8]: 4%
inhibition of growth at 4 ppm [3, 8]: 11%
inhibition of growth at 16 ppm ([3]; Colletotrichum orbiculare, 16 ppm, read-out: Observed efficacy): 52%
inhibition of growth at 1 ppm [4]: 5%
inhibition of growth at 4 ppm [4]: 5%
inhibition of growth at 16 ppm [4]: 6%
inhibition of growth at 63 ppm [4]: 9%

CCN(C)C=Nc1cc(Br)c(OC2CCC(C(C)C)CC2)nc1C (stereo not shown) [K.1.32, N′-[5-bromo-6-(4-isopropylcyclohexoxy)-2-methyl-3-pyridyl]-N-ethyl-N-methyl-formamidine]
inhibition of growth at […] [5, 10]: 40%
inhibition of growth at […] [2, 6]: 0%
inhibition of growth at 1 ppm ([2]; Table V.4, component B alone): 0%
inhibition of growth at […] [3, 7]: 26%

O=C1C2CC=CCC2C(=O)N1SC(Cl)(Cl)Cl (stereo not shown) [Captan, captan]
inhibition of growth at […] [5, 10]: 13%
inhibition of growth at 1 ppm [5, 11]: 44%
inhibition of growth at […] ([1]; component B alone, 0.25 ppm): 20%
inhibition of growth at 1 ppm ([1]; component B alone): 73%
inhibition of growth at […] [2, 6]: 22%
inhibition of growth at […] [3, 7]: 21%
inhibition of growth at 1 ppm [4]: 53%

CNC(=O)/C(=N/OC)c1ccccc1Oc1ccccc1 [Metominostrobin, metominostrobin]
inhibition of growth at 1 ppm [5, 11]: 43%
inhibition of growth at 1 ppm ([2]; Table V.4, component B alone): 46%
inhibition of growth at 1 ppm [4]: 59%

COc1ccc(C(=CC(=O)N2CCOCC2)c2ccc(Cl)cc2)cc1OC [Dimethomorph, dimethomorph]
inhibition of growth at 4 ppm [5, 11]: 41%
inhibition of growth at 4 ppm ([2]; Table V.4, component B alone): 11%
inhibition of growth at 4 ppm [3, 8]: 21%
inhibition of growth at 1 ppm [4]: 4%
inhibition of growth at 4 ppm [4]: 8%

Cn1nc(C(F)F)c(C(=O)Nc2ccccc2Oc2ccc(C(F)(F)F)cc2Cl)c1F [A.3.29, N-[2-[2-chloro-4-(trifluoromethyl)phenoxy]phenyl]-3-(difluoromethyl)-5-fluoro-1-methyl-pyrazole-4-carboxamide]
inhibition of growth at […] ([1]; component B alone, 0.25 ppm): 55%
inhibition of growth at […] [2, 12]: 68%
inhibition of growth at […] [3, 7]: 4%
inhibition of growth at 1 ppm [3, 8]: 11%
inhibition of growth at 1 ppm [4]: 14%
